Test results reported in patent US20250171462A1 (NICO Therapeutics, Inc., priority 2022, published 2025).
Where two headings read alike, the source gives them in different places.

Biological target: T1, full-length SARM1 (FL-SARM1) (Homo sapiens, UniProt Q6SZW1)
T1 sequence (Q6SZW1 28-724): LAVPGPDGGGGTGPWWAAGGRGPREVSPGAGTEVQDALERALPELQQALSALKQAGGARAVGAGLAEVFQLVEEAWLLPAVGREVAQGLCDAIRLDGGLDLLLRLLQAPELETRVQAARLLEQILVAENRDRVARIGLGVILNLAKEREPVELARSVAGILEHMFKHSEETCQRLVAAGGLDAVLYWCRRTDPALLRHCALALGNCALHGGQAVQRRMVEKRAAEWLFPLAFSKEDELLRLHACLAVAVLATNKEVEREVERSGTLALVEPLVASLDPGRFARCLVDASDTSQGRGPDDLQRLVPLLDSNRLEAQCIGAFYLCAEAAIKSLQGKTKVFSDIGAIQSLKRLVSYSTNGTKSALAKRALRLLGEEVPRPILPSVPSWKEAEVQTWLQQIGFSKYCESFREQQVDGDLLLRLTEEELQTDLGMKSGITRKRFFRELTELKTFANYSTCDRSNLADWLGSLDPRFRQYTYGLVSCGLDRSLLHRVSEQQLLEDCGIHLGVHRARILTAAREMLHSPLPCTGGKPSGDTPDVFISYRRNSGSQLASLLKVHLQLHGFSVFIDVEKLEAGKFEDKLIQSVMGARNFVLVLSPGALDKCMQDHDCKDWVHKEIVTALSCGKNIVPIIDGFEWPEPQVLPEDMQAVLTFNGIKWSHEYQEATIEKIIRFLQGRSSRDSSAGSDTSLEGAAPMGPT
Assay: FL-SARM1 cellular lysate assay (NAD/NADH-Glo detection of remaining NAD+, NMN-activated)

[1] = Activity (μM) (IC50), 11 point curve
[2] = read-out: Activity (IC50 class), 11 point curve
[3] = Activity (IC50 class), 11 point curve

`Cc1ccc(NC(=O)N2C3CCCC2C3)cc1-c1cc(C(F)(F)F)cnn1` [Example 66, N-(4-methyl-3-(5-(trifluoromethyl)pyridazine-3-yl)phenyl)-6-azabicyclo[3.1.1]heptane-6-carboxamide] was tested, and the IC50 [1] was 0.5 µM and the IC50 [2] was 0.0001 to 1 µM.

`O=C(Nc1ccc(-c2ccccc2)c(-c2ccccn2)c1)[C@@H]1CC1(F)F` [Example 148, (1S)-2,2-difluoro-N-(4-phenyl-3-pyridin-2-ylphenyl)cyclopropane-1-carboxamide] showed an IC50 [3] greater than 10 µM and an IC50 [1] of 38 µM.

In the case of `Cc1ccc(NC(=O)[C@H]2C[C@H]3C[C@H]3N2c2ncc(Cl)nn2)cc1-c1ncc(F)cn1` [Example 263, (1R,3R,5R)-2-(6-chloro-1,2,4-triazin-3-yl)-N-[3-(5-fluoropyrimidin-2-yl)-4-methylphenyl]-2-azabicyclo[3.1.0]hexane-3-carboxamide], the IC50 [3] is reported as 1 to 10 µM and the IC50 [1] is reported as 1.8 µM.

`Cc1ccc(NC(=O)N(C)C(c2ncccn2)C2CCC2)cc1-c1ncc(F)cn1` (racemic) [Example 214, 1-(cyclobutyl(pyrimidin-2-yl)methyl)-3-(3-(5-fluoropyrimidin-2-yl)-4-methylphenyl)-1-methylurea] was tested, and the IC50 [3] was 1 to 10 µM and the IC50 [1] was 3.9 µM.

For `Cc1ccc(NC(=O)[C@@H]2C[C@@H]2c2ccccn2)cc1-c1cccnn1` [Example 291, (1R,2S)-N-(4-methyl-3-pyridazin-3-ylphenyl)-2-pyridin-2-ylcyclopropane-1-carboxamide], the IC50 [3] was greater than 10 µM and the IC50 [1] was 16 µM.

In the case of `Cc1ccc(NC(=O)CC2CCC2)cc1-c1cnccn1` [Example 166, 2-cyclobutyl-N-(4-methyl-3-pyrazin-2-ylphenyl)acetamide], the IC50 [3] is reported as greater than 10 µM and the IC50 [1] is reported as 19 µM.

With `Cc1cc(F)c(NC(=O)N2C3C[C@@H](C)C[C@H]2C3)cc1-c1ncc(F)cn1` [Example 254, cis-N-[2-fluoro-5-(5-fluoropyrimidin-2-yl)-4-methylphenyl]-3-methyl-6-azabicyclo[3.1.1]heptane-6-carboxamide] the IC50 [1] was 0.02 µM and the IC50 [2] was 0.0001 to 1 µM.

With `Cc1ccc(NC(=O)C(Cc2ncccn2)C2CCC2)cc1-c1ncc(F)cn1` (racemic) [Example 302, 2-cyclobutyl-N-(3-(5-fluoropyrimidin-2-yl)-4-methylphenyl)-3-(pyrimidin-2-yl)propanamide] the IC50 [3] was 1 to 10 µM and the IC50 [1] was 3 µM.

`Cc1ccc(NC(=O)C2CCC23CC3)cc1-c1ccccn1` (racemic) [Example 113, N-(4-methyl-3-pyridin-2-ylphenyl)spiro[2.3]hexane-6-carboxamide] gave an IC50 [3] of 1 to 10 µM and an IC50 [1] of 2.5 µM.

`COCC12CC(C)CC(C1)N2C(=O)Nc1cc(-c2ncccn2)c(C)cc1F` (single isomer, unassigned) [Example 200, trans-N-(2-fluoro-4-methyl-5-pyrimidin-2-ylphenyl)-1-(methoxymethyl)-3-methyl-6-azabicyclo[3.1.1]heptane-6-carboxamide] showed an IC50 [1] of 0.1 µM and an IC50 [2] of 0.0001 to 1 µM.

With `Cc1ccc(NC(=O)N2CC(C)C2)cc1-c1ncc(F)cn1` [Example 232, N-[3-(5-fluoropyrimidin-2-yl)-4-methylphenyl]-3-methylazetidine-1-carboxamide] the IC50 [3] was greater than 10 µM and the IC50 [1] was 20 µM.

In the case of `Cc1ccc(NC(=O)[C@H]2CC[C@H]3C[C@H]3N2c2ncccn2)cc1-c1ncc(F)cn1` [Example 292, (1R,3R,6S)-N-[3-(5-fluoropyrimidin-2-yl)-4-methylphenyl]-2-pyrimidin-2-yl-2-azabicyclo[4.1.0]heptane-3-carboxamide], the IC50 [3] is reported as 1 to 10 µM and the IC50 [1] is reported as 2 µM.

Work on `Cc1ccc(NC(=O)[C@H]2C[C@H]3C[C@H]3N2c2ccncn2)cc1-c1ncc(F)cn1` [Example 265, (1R,3R,5R)-N-[3-(5-fluoropyrimidin-2-yl)-4-methylphenyl]-2-pyrimidin-4-yl-2-azabicyclo[3.1.0]hexane-3-carboxamide] yielded an IC50 [3] of 1 to 10 µM and an IC50 [1] of 1.9 µM.

`Cc1ccc(NC(=O)N2C3C[C@H](C)C[C@@H]2C3)cc1-c1ncc(F)cn1` [Example 51, cis-N-(3-(5-fluoropyrimidin-2-yl)-4-methylphenyl)-3-methyl-6-azabicyclo[3.1.1]heptane-6-carboxamide] showed an IC50 [1] of 0.01 µM and an IC50 [2] of 0.0001 to 1 µM.

Work on `Cc1ccc(NC(=O)N2CCc3ccccc3C2)cc1-c1ccccn1` [Example 101, N-(4-methyl-3-pyridin-2-ylphenyl)-3,4-dihydro-1H-isoquinoline-2-carboxamide] yielded an IC50 [3] of 1 to 10 µM and an IC50 [1] of 10 µM.

Work on `Cc1ccc(NC(=O)N2C3CCCC2C3)cc1-c1nccc(C#N)n1` [Example 67, N-(3-(4-cyanopyrimidin-2-yl)-4-methyl-phenyl)-6-azabicyclo[3.1.1]heptane-6-carboxamide] yielded an IC50 [1] of 0.6 µM and an IC50 [2] of 0.0001 to 1 µM.

`Cc1ccc(NC(=O)C2CCC(=O)N2c2ccccn2)cc1-c1ncc(F)cn1` (racemic) [Example 278, N-[3-(5-fluoropyrimidin-2-yl)-4-methylphenyl]-5-oxo-1-pyridin-2-ylpyrrolidine-2-carboxamide] showed an IC50 [3] greater than 10 µM and an IC50 [1] of 17 µM.

Compound `COc1nccnc1-c1cc(NC(=O)N2[C@@H]3C[C@@H](C)C[C@H]2C3)ccc1C` [Example 219, cis-N-[3-(3-methoxypyrazin-2-yl)-4-methylphenyl]-3-methyl-6-azabicyclo[3.1.1]heptane-6-carboxamide] has an IC50 [3] of 1 to 10 µM and an IC50 [1] of 1 µM.

In the case of `Cc1ccc(NC(=O)C2CC3CC[C@H]2C3)cc1-c1ccccn1` (single isomer, unassigned) [Example 137, trans-N-(4-methyl-3-pyridin-2-ylphenyl)bicyclo[2.2.1]heptane-2-carboxamide], the IC50 [1] is reported as 0.1 µM and the IC50 [2] is reported as 0.0001 to 1 µM.

`COc1ccc(-c2cc(NC(=O)N3C4CCCC3C4)ccc2C)nn1` [Example 60, N-(3-(6-methoxypyridazin-3-yl)-4-methyl-phenyl)-6-azabicyclo[3.1.1]heptane-6-carboxamide] showed an IC50 [3] of 1 to 10 µM and an IC50 [1] of 1.1 µM.

`Cc1ccc(NC(=O)OCC2CC2)cc1-c1ncccn1` [Example 328] showed an IC50 [3] greater than 10 µM and an IC50 [1] of 31 µM.

For `Cc1ccc(NC(=O)N2C3CCC2[C@@H](C)C3)cc1-c1ncc(F)cn1` (single isomer, unassigned) [Example 195, cis-N-(3-(5-fluoropyrimidin-2-yl)-4-methylphenyl)-2-methyl-7-azabicyclo[2.2.1]heptane-7-carboxamide], the IC50 [1] was 0.3 µM and the IC50 [2] was 0.0001 to 1 µM.

Compound `Cc1ccc(NC(=O)[C@H]2C[C@H](C3CC3)C2)cc1-c1ccccn1` (single isomer, unassigned) [Example 121, trans-3-cyclopropyl-N-(4-methyl-3-pyridin-2-ylphenyl)cyclobutane-1-carboxamide] has an IC50 [1] of 0.9 µM and an IC50 [2] of 0.0001 to 1 µM.

In the case of `CO[C@@H]1C[C@@H]2C[C@H](C1)N2C(=O)Nc1ccc(C)c(-c2ccccn2)c1` [Example 41, cis-3-methoxy-N-(4-methyl-3-(pyridin-2-yl)phenyl)-6-azabicyclo[3.1.1]heptane-6-carboxamide], the IC50 [1] is reported as 0.5 µM and the IC50 [2] is reported as 0.0001 to 1 µM.

With `Cc1cc(F)c(NC(=O)N2C3CC2CN(CC(F)(F)F)C3)cc1-c1ccccn1` [Example 3, N-(2-Fluoro-4-methyl-5-(pyridin-2-yl)phenyl)-3-(2,2,2-trifluoroethyl)-3,6-diazabicyclo[3.1.1]heptane-6-carboxamide] the IC50 [3] was 1 to 10 µM and the IC50 [1] was 1.2 µM.

For `Cc1ccc(-c2cc(NC(=O)[C@@H]3CC3(F)F)ccc2C)nc1` [Example 162, (1S)-2,2-difluoro-N-[4-methyl-3-(5-methylpyridin-2-yl)phenyl]cyclopropane-1-carboxamide], the IC50 [3] was 1 to 10 µM and the IC50 [1] was 2.5 µM.
